From patent US5114464A, “4-quinoxalinyloxyphenoxyalkylinitrile herbicides” (Uniroyal Chemical Company, Inc., priority 1990, dated 1992)

Experiments:
velvet leaf [1] = assay: Preemergence control of velvet leaf (Table I); type: in vivo, Abutilon theoohrasti Medic.; details: 11.2 kg/ha, two weeks after treatment
Protocol: (§1) To illustrate the effectiveness of the Compounds 1 and 2 of this invention as preemergence herbicides, 300 mg of each compound were dissolved in 10 ml acetone to which 30 mg of an emulsifying agent, ethoxylated sorbitan monolaurate, were added. The solution was diluted to 100 ml with distilled water. Ten milliliters of the 3000 ppm solution were diluted to 250 ppm with distilled water. The chemical was applied at the rate of 10 lb/A (11.2 kg/ha) by drenching 46 ml of the 250 ppm solution on the surface of soil in 41/2inch (11.25 cm) plastic pots wherein seeds of the following weeds had been planted: velvet leaf (Abutilon theoohrasti Medic.) (VL), prickly sida (sida soinosa L.) (PS), tall morningglory (Ioomea purourea L. Roth) (TM), switchgrass (Panicum viroatum L.) (SG), barnyard grass (Echinolchloa crus-oalli (L.) Beauv.) (BG), and green foxtail (Setaria viridis) (L.) Beauv.) (GF). The percent control of the weeds compared to untreated checks was determined two weeks after treatment.

prickly sida [2] = assay: Preemergence control of prickly sida (Table I); type: in vivo, sida soinosa L.; details: 11.2 kg/ha, two weeks after treatment
Protocol: as §1

tall morningglory [3] = assay: Preemergence control of tall morningglory (Table I); type: in vivo, Ioomea purourea L. Roth; details: 11.2 kg/ha, two weeks after treatment
Protocol: as §1

barnyard grass [4] = assay: Preemergence control of barnyard grass (Table I); type: in vivo, Echinolchloa crus-oalli (L.) Beauv.; details: 11.2 kg/ha, two weeks after treatment
Protocol: as §1

switchgrass [5] = assay: Preemergence control of switchgrass (Table I); type: in vivo, Panicum viroatum L.; details: 11.2 kg/ha, two weeks after treatment
Protocol: as §1

green foxtail [6] = assay: Preemergence control of green foxtail (Table I); type: in vivo, Setaria viridis (L.) Beauv.; details: 11.2 kg/ha, two weeks after treatment
Protocol: as §1

velvet leaf [7] = assay: Postemergence control of velvet leaf (Table II); type: in vivo, Abutilon theoohrasti Medic.; details: 3000 ppm, two weeks after treatment
Protocol: as §1
(§2) To test the effectiveness of Compounds 1 and 2 of this invention as postemergence herbicides, a 3000 ppm solution of each compound (produced in accordance with the process described under Example 3) was atomized employing a DEVILBISS [trademark] sprayer, wetting the foliage to the drip point. […] The percent weed control was evaluated two weeks after treatment.

prickly sida [8] = assay: Postemergence control of prickly sida (Table II); type: in vivo, sida soinosa L.; details: 3000 ppm, two weeks after treatment
Protocol: as §1, §2

tall morningglory [9] = assay: Postemergence control of tall morningglory (Table II); type: in vivo, Ioomea purourea L. Roth; details: 3000 ppm, two weeks after treatment
Protocol: as §1, §2

barnyard grass [10] = assay: Postemergence control of barnyard grass (Table II); type: in vivo, Echinolchloa crus-oalli (L.) Beauv.; details: 3000 ppm, two weeks after treatment
Protocol: as §1, §2

switchgrass [11] = assay: Postemergence control of switchgrass (Table II); type: in vivo, Panicum viroatum L.; details: 3000 ppm, two weeks after treatment
Protocol: as §1, §2

green foxtail [12] = assay: Postemergence control of green foxtail (Table II); type: in vivo, Setaria viridis (L.) Beauv.; details: 3000 ppm, two weeks after treatment
Protocol: as §1, §2

velvet leaf [13] = assay: Postemergence selectivity, greenhouse: velvet leaf (Table V); type: in vivo, Abutilon theoohrasti Medic.; details: 2 weeks
Protocol: (§3) To illustrate the effectiveness of Compound 1 of this invention as a corn-safe selective postemergence herbicide, the 3000 ppm solution prepared as described in Example 3 was diluted with distilled water to 250 ppm and applied to foliage as described in Example 3. The commercial product Hoelon 3EC® (Hoechst) was included as a standard. The foliage included weedy grasses described in Example 3 in addition to the crops corn, soybeans and cotton. The foliage was planted in a Connecticut greenhouse on May 16, and was treated on May 26. The percent weed control and crop injury was determined on Jun. 12.
(§4) To illustrate the effectiveness of Compound 2 of this invention as a corn-safe selective postemergence herbicide, various concentrations of the compound were prepared and applied as in Example 5 to the following weeds and crops: velvet leaf (Abutilon theoohrasti Medic.) (VL), prickly sida (Sida spinosa L.) (PS), wild morningglory (Ipomopa sp.) (WM), barnyard grass (Echinolchloa crus-galli (L.) Beauv.) (BG), green foxtail (Setaria viridis) (L.) Beauv.) (GF), wild oat (Avena fatua L.) (WO), corn (CR), soybean (SO), cotton (CT) and rice (RC). The weeds and crops were planted in mid-September in a Connecticut greenhouse and were treated eight days later. The percent weed control and crop injury was determined 2 weeks after treatment.

prickly sida [14] = assay: Postemergence selectivity, greenhouse: prickly sida (Table V); type: in vivo, Sida spinosa L.; details: 2 weeks
Protocol: as §3, §4

wild morningglory = assay: Postemergence selectivity, greenhouse: wild morningglory (Table V); type: in vivo, Ipomopa sp.; details: 2 weeks
Protocol: as §3, §4

wild oat = assay: Postemergence selectivity, greenhouse: wild oat (Table V); type: in vivo, Avena fatua L.; details: 2 weeks
Protocol: as §3, §4

green foxtail [15] = assay: Postemergence selectivity, greenhouse: green foxtail (Table V); type: in vivo, Setaria viridis (L.) Beauv.; details: 2 weeks
Protocol: as §3, §4

barnyard grass [16] = assay: Postemergence selectivity, greenhouse: barnyard grass (Table V); type: in vivo, Echinolchloa crus-galli (L.) Beauv.; details: 2 weeks
Protocol: as §3, §4

corn = assay: Postemergence selectivity, greenhouse: corn injury (Table V); type: in vivo; details: for Percent crop injury CR: postemergence, 2 weeks
Protocol: as §3, §4

soybean = assay: Postemergence selectivity, greenhouse: soybean injury (Table V); type: in vivo; details: 2 weeks
Protocol: as §3, §4

cotton = assay: Postemergence selectivity, greenhouse: cotton injury (Table V); type: in vivo; details: 2 weeks
Protocol: as §3, §4

rice = assay: Postemergence selectivity, greenhouse: rice injury (Table V); type: in vivo; details: 2 weeks
Protocol: as §3, §4

weeds [17] = assay: Preemergence control, summary statement; type: in vivo; details: 11.2 kg/ha
Protocol: as §1

weeds [18] = assay: Postemergence control, summary statement; type: in vivo; details: 3000 ppm
Protocol: as §1, §2

grass weeds = assay: Postemergence selectivity greenhouse (Example 7), summary for grass weeds; type: in vivo; details: 1000 to 3000 ppm
Protocol: as §3, §4

## CC(C#N)Oc1ccc(Oc2cnc3cc(Cl)ccc3n2)cc1 (stereo not shown) [Compound 2, 2-[4-(6-chloro-2-quinoxalinyloxy)phenoxy]propionitrile]
Velvet leaf [1]
  % Control VL: 0%
Prickly sida [2]
  % Control PS: 0%
Tall morningglory [3]
  % Control TM: 0%
Barnyard grass [4]
  % Control BG: 50%
Switchgrass [5]
  % Control SG: 100%
Green foxtail [6]
  % Control GF: 25%
Velvet leaf [7]
  % Control VL: 95%
Prickly sida [8]
  % Control PS: 75%
Tall morningglory [9]
  % Control TM: 55%
Barnyard grass [10]
  % Control BG: 65%
Switchgrass [11]
  % Control SG: 35%
Green foxtail [12]
  % Control GF: 95%
Velvet leaf [13]; 1000 ppm
  Percent Weed Control VL: 90%
Velvet leaf [13]; 2000 ppm
  Percent Weed Control VL: 90%
Velvet leaf [13]; 3000 ppm
  Percent Weed Control VL: 90%
Prickly sida [14]; 1000 ppm
  Percent Weed Control PS: 0%
Prickly sida [14]; 2000 ppm
  Percent Weed Control PS: 0%
Prickly sida [14]; 3000 ppm
  Percent Weed Control PS: 0%
Wild morningglory; 1000 ppm
  Percent Weed Control WM: 10%
Wild morningglory; 2000 ppm
  Percent Weed Control WM: 10%
Wild morningglory; 3000 ppm
  Percent Weed Control WM: 20%
Wild oat; 1000 ppm
  Percent Weed Control WO: 0%
Wild oat; 2000 ppm
  Percent Weed Control WO: 0%
Wild oat; 3000 ppm
  Percent Weed Control WO: 10%
Green foxtail [15]; 1000 ppm
  Percent Weed Control GF: 100%
Green foxtail [15]; 2000 ppm
  Percent Weed Control GF: 100%
Green foxtail [15]; 3000 ppm
  Percent Weed Control GF: 100%
Barnyard grass [16]; 1000 ppm
  Percent Weed Control BG: 85%
Barnyard grass [16]; 2000 ppm
  Percent Weed Control BG: 85%
Barnyard grass [16]; 3000 ppm
  Percent Weed Control BG: 95%
corn; 1000 ppm
  Percent crop injury CR: 0%
corn; 1000 to 3000 ppm
  corn safety: substantially innocuous to corn
corn; 2000 ppm
  Percent crop injury CR: 0%
corn; 3000 ppm
  Percent crop injury CR: 0%
soybean; 1000 ppm
  Percent crop injury SO: 20%
soybean; 2000 ppm
  Percent crop injury SO: 20%
soybean; 3000 ppm
  Percent crop injury SO: 20%
cotton; 1000 ppm
  Percent crop injury CT: 20%
cotton; 2000 ppm
  Percent crop injury CT: 20%
cotton; 3000 ppm
  Percent crop injury CT: 20%
rice; 1000 ppm
  Percent crop injury RC: 50%
rice; 2000 ppm
  Percent crop injury RC: 50%
rice; 3000 ppm
  Percent crop injury RC: 50%
Weeds [17]
  herbicidal efficacy: good to excellent herbicidal efficacy
Weeds [18]
  postemergent herbicidal control: desirable postemergent herbicidal control
Grass weeds
  control of several grass weeds: good control of several grass weeds
